Article PMC11149339, “Necessity for higher teicoplanin doses in older adults: a multicenter prospective observational study in China” (BMC Geriatrics, 2024)

What was measured:
[1] = Thrombocytopenia during teicoplanin treatment; format: in vivo, human
Excerpt: Patients with platelet counts < 100 × 10^9/L at baseline were excluded. Thrombocytopenia was defined as a decrease in the platelet count of > 30% from baseline.

[2] = Therapeutic drug monitoring of teicoplanin trough concentration (Cmin) during treatment, LC-MS/MS; format: in vivo, human; settings: for patients with TDM 10–20 mg/L At 8-14d, N (%) / patients with TDM < 10 mg/L At 8-14d, N (%) / patients with TDM > 20 mg/L At 8-14d, N (%) / TDM At 8-14d (teicoplanin trough concentration): 8–14 days after first dose; for TDM At 8-14d (teicoplanin trough concentration) / TDM At 3d (teicoplanin trough concentration): median [IQR], LC-MS/MS; for patients with TDM 10–20 mg/L At 3d, N (%) / patients with TDM < 10 mg/L At 3d, N (%) / patients with TDM > 20 mg/L At 3d, N (%) / TDM At 3d (teicoplanin trough concentration): 3 days after first dose
Protocol: Teicoplanin (Targocid, Sanofi, Dublin, Ireland) was administered intravenously for 30 min. The prescribed dose regimens were at the discretion of treating physicians, and the recommended regimens were not always followed.
Blood samples (5 mL) were collected from the elbow into ethylenediaminetetraacetic acid-containing Vacutainers® (Becton Dickinson, Milan, Italy) in the morning before teicoplanin administration and after drug withdrawal. Samples were promptly refrigerated and centrifuged at 2500 × g for 10 min before 2 mL of supernatant was preserved at -20 °C for subsequent analysis. Teicoplanin concentrations were determined using liquid chromatography-tandem mass spectrometry. The linear range of the method was 1.0–100.0 mg/L, and the lower limit of quantification was 1.0 mg/L. The relative standard deviation of intra- and inter-batch precision was ≤ 10%.
Teicoplanin concentrations were dynamically monitored. Concentrations at 3, ≤ 7, 8–14, and ≥ 15 days after the first dose and within 2 h of the next scheduled dose were recorded as TDM3d, TDM≤7d, TDM8-14d, and TDM≥15d, respectively. Concentrations at 3, ≤ 7, 8–14, and ≥ 15 days after the last teicoplanin dose (withdrawal) were recorded as TDMw3d, TDMw≤7d, TDMw8-14d, and TDMw≥15d. respectively (Fig. 1a). The Cmin target was ≥ 10 mg/L [6, 7, 23]; a concentration < 10 mg/L was considered suboptimal. Average TDM (TDMa) was defined as the mean Cmin after 3 days of treatment.

[3] = LR-A + MR-A (200 mg once daily, then 200 mg once daily)
[4] = LR-B + MR-A (400 mg once daily, then 200 mg once daily)
[5] = LR-B + MR-B (400 mg once daily, then 400 mg once daily)
[6] = LR-C + MR-B (400 mg at 12-h intervals, then 400 mg once daily)
[7] = LR-C + MR-C (400 mg at 12-h intervals, then 400 mg twice daily)

patients with TDM 10–20 mg/L At 8-14d, N (%) ([2]; LR-A + MR-A): 20(41.7) | patients with TDM < 10 mg/L At 8-14d, N (%) ([2]; LR-A + MR-A): 22(45.8) | patients with TDM > 20 mg/L At 8-14d, N (%) ([2]; LR-A + MR-A): 6(12.5) | TDM At 8-14d (teicoplanin trough concentration) [2, 3]: 10.4[7.3,17.8] mg/L | patients with TDM 10–20 mg/L At 8-14d, N (%) ([2]; LR-B + MR-A): 25(53.2) | patients with TDM < 10 mg/L At 8-14d, N (%) ([2]; LR-B + MR-A): 16(34.0) | patients with TDM > 20 mg/L At 8-14d, N (%) ([2]; LR-B + MR-A): 6(12.8) | TDM At 8-14d (teicoplanin trough concentration) [2, 4]: 11.0[7.3,15.4] mg/L | patients with TDM 10–20 mg/L At 8-14d, N (%) ([2]; LR-B + MR-B): 2(50.0) | patients with TDM < 10 mg/L At 8-14d, N (%) ([2]; LR-B + MR-B): 1(25.0) | patients with TDM > 20 mg/L At 8-14d, N (%) ([2]; LR-B + MR-B): 1(25.0) | TDM At 8-14d (teicoplanin trough concentration) [2, 5]: 12.8[9.0,21.5] mg/L | patients with TDM 10–20 mg/L At 8-14d, N (%) ([2]; LR-C + MR-B): 8(57.2) | patients with TDM < 10 mg/L At 8-14d, N (%) ([2]; LR-C + MR-B): 5(35.7) | patients with TDM > 20 mg/L At 8-14d, N (%) ([2]; LR-C + MR-B): 1(7.1) | TDM At 8-14d (teicoplanin trough concentration) [2, 6]: 14.16[8.9,16.4] mg/L | patients with TDM 10–20 mg/L At 8-14d, N (%) ([2]; LR-C + MR-C): 3(37.5) | patients with TDM < 10 mg/L At 8-14d, N (%) ([2]; LR-C + MR-C): 0 | patients with TDM > 20 mg/L At 8-14d, N (%) ([2]; LR-C + MR-C): 5(62.5) | TDM At 8-14d (teicoplanin trough concentration) [2, 7]: 21.2[16.8,27.4] mg/L | TDM At 8-14d (teicoplanin trough concentration) ([2]; all patients (N = 204), iv): 11.1[8.5,17.6] mg/L | patients with TDM 10–20 mg/L At 3d, N (%) ([2]; LR-A + MR-A): 0 | patients with TDM < 10 mg/L At 3d, N (%) ([2]; LR-A + MR-A): 16(100) | patients with TDM > 20 mg/L At 3d, N (%) ([2]; LR-A + MR-A): 0 | TDM At 3d (teicoplanin trough concentration) [2, 3]: 5.4[3.0,7.7] mg/L | patients with TDM 10–20 mg/L At 3d, N (%) ([2]; LR-B + MR-A): 2(10.5) | patients with TDM < 10 mg/L At 3d, N (%) ([2]; LR-B + MR-A): 17(89.5) | patients with TDM > 20 mg/L At 3d, N (%) ([2]; LR-B + MR-A): 0 | TDM At 3d (teicoplanin trough concentration) [2, 4]: 6.3[4.4,7.9] mg/L | patients with TDM 10–20 mg/L At 3d, N (%) ([2]; LR-B + MR-B): 1(16.7) | patients with TDM < 10 mg/L At 3d, N (%) ([2]; LR-B + MR-B): 3(50.0) | patients with TDM > 20 mg/L At 3d, N (%) ([2]; LR-B + MR-B): 2(33.3) | TDM At 3d (teicoplanin trough concentration) [2, 5]: 11.1[8.1,22.2] mg/L | patients with TDM 10–20 mg/L At 3d, N (%) ([2]; LR-C + MR-B): 5(62.5) | patients with TDM < 10 mg/L At 3d, N (%) ([2]; LR-C + MR-B): 3(37.5) | patients with TDM > 20 mg/L At 3d, N (%) ([2]; LR-C + MR-B): 0 | TDM At 3d (teicoplanin trough concentration) [2, 6]: 11.0[7.0,13.3] mg/L | patients with TDM 10–20 mg/L At 3d, N (%) ([2]; LR-C + MR-C): 7(50.0) | patients with TDM < 10 mg/L At 3d, N (%) ([2]; LR-C + MR-C): 3(21.4) | patients with TDM > 20 mg/L At 3d, N (%) ([2]; LR-C + MR-C): 4(28.6) | TDM At 3d (teicoplanin trough concentration) [2, 7]: 14.4[10.7,21.1] mg/L | TDM At 3d (teicoplanin trough concentration) ([2]; all patients (N = 204), iv): 7.7[5.6,12.4] mg/L | target concentration achievement rate (≥ 10 mg/L) ([2]; TDM8-14d, LR-A + MR-A regimen): 54.2% | target concentration achievement rate (≥ 10 mg/L) ([2]; TDM8-14d, LR-B + MR-A regimen): 66.0% | target concentration achievement rate (≥ 10 mg/L) ([2]; TDM8-14d, LR-B + MR-B regimen): 75.0% | target concentration achievement rate (≥ 10 mg/L) ([2]; TDM8-14d, LR-C + MR-C regimen): 100% | target concentration achievement rate (≥ 10 mg/L) ([2]; TDM3d, LR-A + MR-A regimen): 0% | target concentration achievement rate (≥ 10 mg/L) ([2]; TDM3d, LR-B + MR-A regimen): 10.5%
Substance: Teicoplanin
incidence of thrombocytopenia ([1]; TDMa < 10 mg/L (16/49)): 32.7% | incidence of thrombocytopenia ([1]; TDMa = 10–20 mg/L (12/42)): 28.6% | incidence of thrombocytopenia ([1]; TDMa = 20–40 mg/L (7/20)): 35.0% | incidence of thrombocytopenia ([1]; all evaluable patients (35/111), platelet count decrease > 30% from baseline): 31.5%
